Values after ≈ are worked out from the molar mass of the structure shown. Where two headings read alike, the source gives them in different places.
Experiments:
[1] = system: Plasmodium falciparum 3D7 (chloroquine-sensitive); assay: In vitro antiplasmodial screening, parasitemia by flow cytometry; assay type: cell-based; design: Plasmodium falciparum 3D7 Growth Inhibition (%): concentration or dose not given beside the values; conditions: 3D7 chloroquine-sensitive, 48 h; for Plasmodium falciparum 3D7 Growth Inhibition (%): mean ± SD; for IC50: Plasmodium falciparum, read-out: Plasmodium falciparum 3D7 IC50
Protocol: (§1) The antimalarial activity assay was performed using Plasmodium falciparum 3D7 (chloroquine-sensitive) and FCR-3 (chloroquine-resistant) reference strains, which were cultured in vitro following the method described by Trager et al. with some modifications.
(§2) The experiments were performed in 96-well culture plates, where the stock solutions of compounds 1–12 (1, 0.1, 0.01, and 0.001 µg/mL) were tested. A total of 100 µL of each product was distributed in triplicate on the culture plates, and 100 µL of a red blood cell suspension (4% hematocrit, final parasitemia of 1% ring stage) was added, resulting in a final volume of 200 µL. The test plates were incubated at 37 °C for 48 h, and parasitemia was determined by flow cytometry (BDFACScalibur). Erythrocytes were taken from each well culture plate, and 100 µL of ethidium bromide (10 µg/mL) was added and incubated for 30 min. A total of 100,000 cells per well culture plate were acquired and analyzed. The IC50 of the pure products was determined by a regression curve of the percentage inhibition of parasite activity as a function of the logarithmic dose. Chloroquine diphosphate was used as the reference drug.

[2] = system: Enterococcus faecalis (ATCC 29212); assay: Minimum inhibitory concentration, broth dilution method; assay type: cell-based; conditions: ATCC29212, broth dilution, triplicate, read-out: MIC E. faecalis G+
Protocol: (§3) The microorganisms used were Staphylococcus aureus (ATCC 25923), Proteus mirabilis (ATCC 12453) Enterococcus faecalis (ATCC 29212), Escherichia coli (ATCC 25922), Salmonella typhimurium (ATCC 19585), and Klebsiella pneumoniae (ATCC 700603).
(§4) The antimicrobial activity of the phenylaminonaphthoquinones 1–12 was determined by the broth dilution method. The following concentrations were tested: 200, 100, 50, 25, and 12.5 μg/mL. After incubation, the microbial growth was examined. The results are expressed in minimum inhibitory concentration (MIC), the lowest concentration of phenylaminonaphthoquinones with no visible growth. The bactericidal/bacteriostatic activity was determined by sub-cultivation of the samples in normal culture media at appropriate temperatures and incubation times. The MIC of each compound was performed in triplicate. The compounds 1–12 were dissolved in DMSO. Cefazolin and cefotaxime were used as positive controls at the same compound concentrations.

[3] = system: Escherichia coli (ATCC 25922); assay: as above; assay type: cell-based; conditions: ATCC25922, broth dilution, triplicate, read-out: MIC E. coli G−
Protocol: as §3, §4

[4] = system: Klebsiella pneumoniae (ATCC 700603); assay: as above; assay type: cell-based; conditions: ATCC700603, broth dilution, triplicate, read-out: MIC K. pneumonia G−
Protocol: as §3, §4

[5] = system: Staphylococcus aureus (ATCC 25923); assay: as above; assay type: cell-based; conditions: triplicate; for MIC: Staphylococcus aureus, ATCC25923, broth dilution, read-out: MIC S. aureus G+; for MIC S. aureus G+: broth dilution
Protocol: as §3, §4

[6] = system: Proteus mirabilis (ATCC 12453); assay: as above; assay type: cell-based; conditions: ATCC12453, broth dilution, triplicate, read-out: MIC P. mirabilis G+
Protocol: as §3, §4

[7] = system: Salmonella typhimurium (ATCC 19585); assay: as above; assay type: cell-based; conditions: Salmonella enterica; broth dilution, triplicate; read-out: MIC S. typhimurium G−
Protocol: as §3, §4

[8] = system: Plasmodium falciparum FCR-3 (chloroquine-resistant); assay: In vitro antiplasmodial screening, parasitemia by flow cytometry; assay type: cell-based; design: Plasmodium falciparum FCR-3 Growth Inhibition (%): concentration or dose not given beside the values; conditions: for Plasmodium falciparum FCR-3 Growth Inhibition (%): mean ± SD; for IC50: Plasmodium falciparum, read-out: Plasmodium falciparum FCR-3 IC50
Protocol: as §1, §2

[9] = Experimental log P, shake-flask method n-octanol/water; assay type: physicochemical; conditions: 25 ± 1 °C
Protocol: The mixture was then allowed to stand for 24 h at the same temperature for further phase separation. A stock solution with a concentration of 0.01 mol per liter in water, pre-saturated with n-octanol, was prepared for each compound. Duplicate test vessels containing a mixture of the stock solution and n-octanol (pre-saturated with water) were shaken on a vortex shaker for 5 min. Phase separation was achieved by centrifugation of the vessels for 3 min at 4000× g (25 ± 1 °C), and the concentration of the solute in the water phase (C water) was measured from their absorbance at 205 nm using a UV spectrophotometer. The partition coefficient was calculated using the following equation. Log Po/w = Log(C n-octanol/C water)
All the measurements were carried out at room temperature (25 ± 1 °C). In order to check the performance of the method, aniline was used as a reference substance.

[10] = FCR-3 chloroquine-resistant, 48 h
[11] = FCR3, FCR-3 chloroquine-resistant, 48 h

Row | Compound | Plasmodium falciparum 3D7 Growth Inhibition (%) [1] | IC50 [1] | MIC [2] | MIC [3] | MIC [4] | MIC [5] | MIC S. aureus G+ [5] | MIC [6] | MIC [7] | Plasmodium falciparum FCR-3 Growth Inhibition (%) [8, 10] | IC50 [8, 11] | logP [9] | Plasmodium falciparum 3D7 IC50 [1] | IC50 ([8]; FCR3, 48 h)
1 | COc1ccc(OC)c(NC2=C(Cl)C(=O)c3ccccc3C2=O)c1 [Compound 10] | 20.0 ± 3.0% | > 1 µg/mL | 70.8 µg/mL (≈ 206 µM) | 23.5 µg/mL (≈ 68.4 µM) | > 50 µg/mL | 3.2 to 5.7 µg/mL (≈ 9.31 to 16.6 µM) | 4.7 µg/mL (≈ 13.7 µM) | > 50 µg/mL | 31.7 µg/mL (≈ 92.2 µM) | 21.0 ± 4.0% | > 1 µg/mL | 1.94 ± 0.56 |  | 
2 | O=C1C=C(Nc2ccccc2)C(=O)c2ccccc21 [Compound 1, 2-phenylamino-1,4-naphthoquinone] | 58.0 ± 3.0% | 0.16 µg/mL (≈ 0.642 µM) | 49.9 µg/mL (≈ 200 µM) | 26.3 µg/mL (≈ 106 µM) | > 50 µg/mL | 3.2 to 5.7 µg/mL (≈ 12.8 to 22.9 µM) | 3.9 µg/mL (≈ 15.6 µM) | 40 µg/mL (≈ 160 µM) | 38.8 µg/mL (≈ 156 µM) | 65.0 ± 1.0% | 0.74 µg/mL (≈ 2.97 µM) | 1.42 ± 0.21 |  | 
3 | CN(C1=CC(=O)c2ccccc2C1=O)c1ccccc1 [Compound 11] | 26.0 ± 8.0% | > 1 µg/mL | 30.2 µg/mL (≈ 115 µM) | > 50 µg/mL | > 50 µg/mL | 3.2 to 5.7 µg/mL (≈ 12.2 to 21.6 µM) | 5.5 µg/mL (≈ 20.9 µM) | 44 µg/mL (≈ 167 µM) | > 50 µg/mL | 72.0 ± 2.0% | 0.55 µg/mL (≈ 2.09 µM) | 2.31 ± 0.3 |  | 
4 | CN(C1=C(Cl)C(=O)c2ccccc2C1=O)c1ccccc1 [Compound 12] | 62.0 ± 5.0% | 0.8 µg/mL (≈ 2.69 µM) | 47.2 µg/mL (≈ 159 µM) | 28.6 µg/mL (≈ 96.1 µM) | > 50 µg/mL | 29 µg/mL (≈ 97.4 µM) |  | 11.5 µg/mL (≈ 38.6 µM) | 50 µg/mL (≈ 168 µM) | 25.0 ± 5.0% | > 1 µg/mL | 2.33 ± 0.02 |  | 
5 | CO/N=C(\C(=O)N[C@@H]1C(=O)N2C(C(=O)O)=C(COC(C)=O)CS[C@H]12)c1csc(N)n1 [CTX, cefotaxime, reference compound] |  |  | 10.9 µg/mL (≈ 23.9 µM) | > 50 µg/mL | 8.4 µg/mL (≈ 18.4 µM) | 8.9 µg/mL (≈ 19.5 µM) |  | 8.9 µg/mL (≈ 19.5 µM) | 8.2 µg/mL (≈ 18 µM) |  |  |  |  | 
6 | CCN(CC)CCCC(C)Nc1ccnc2cc(Cl)ccc12 (centres unmarked) [CQ, chloroquine, reference compound] |  |  |  |  |  |  |  |  |  |  |  |  | 0.06 µg/mL | 0.33 µg/mL (≈ 1.03 µM)
7 | COc1ccc(OC)c(NC2=CC(=O)c3ccccc3C2=O)c1 [Compound 9] | 33.0 ± 1.0% | > 1 µg/mL | 38.2 µg/mL (≈ 123 µM) | > 50 µg/mL | > 50 µg/mL | > 50 µg/mL |  | 29.9 µg/mL (≈ 96.7 µM) | 43.8 µg/mL (≈ 142 µM) | 24.0 ± 2.0% | > 1 µg/mL | 1.6 ± 0.23 |  | 
8 | COc1ccc(NC2=C(Cl)C(=O)c3ccccc3C2=O)cc1 [Compound 8] | 26.0 ± 2.0% | > 1 µg/mL | 40.1 µg/mL (≈ 128 µM) | > 50 µg/mL | 49.1 µg/mL (≈ 156 µM) | 21.9 µg/mL (≈ 69.8 µM) |  | 52.6 µg/mL (≈ 168 µM) | 49.9 µg/mL (≈ 159 µM) | 34.0 ± 2.0% | > 1 µg/mL | 1.81 ± 1.04 |  | 

From PMC11870044, “Exploring the Antibacterial and Antiparasitic Activity of Phenylaminonaphthoquinones—Green Synthesis, Biological Evaluation and Computational Study” (International Journal of Molecular Sciences, 2024)
